Measurements reported in patent US9758529B2, “Fused dihydro-4H-pyrazolo[5,1-C][1,4]oxazinyl compounds and analogs for treating CNS disorders” (Sunovion Pharmaceuticals Inc., priority 2015, dated 2017).

System: mice
Assay: Neuropharmacological Assay (SmartCube)
Assay type: in vivo
Details: i.p. 15 min before behavioral test; 3 doses, most efficacious dose(s) presented

SMILES | AD: ADHD (probability of class match) | AG: analgesic (probability of class match) | AX: anxiolytic (probability of class match) | CE: cognitive enhancer (probability of class match) | DP: anti-depressant (probability of class match) | HA: hallucinogen (probability of class match) | MS: mood stabilizer (probability of class match) | PS: anti-psychotic (probability of class match) | SD: sedative hypnotic (probability of class match) | UN: uncharacterized CNS activity (probability of class match) | XG: anxiogenic (probability of class match)
CNC[C@H]1OCCn2nc3ccsc3c21 [Compound 69, (R)-1-(6,7-dihydro-9H-thieno[3′,2′:3,4]pyrazolo[5,1-c][1,4]oxazin-9-yl)-N-methylmethanamine] | + (LOQ≦ + <5%) | + (LOQ≦ + <5%) | ++ (5%≦ ++ <25%) | + (LOQ≦ + <5%) | ++ (5%≦ ++ <25%) | + (LOQ≦ + <5%) | + (LOQ≦ + <5%) | + (LOQ≦ + <5%) | + (LOQ≦ + <5%) | ++ (5%≦ ++ <25%) | + (LOQ≦ + <5%)
CNCC1OCCn2nc3ccccc3c21 (stereo not shown) [Compound I-4, (3,4-dihydro-1H-[1,4]oxazino[4,3-b]indazol-1-yl)-N-methylmethanamine] | ++ (5%≦ ++ <25%) | + (LOQ≦ + <5%) | +++ (25%≦ +++ <50%) | + (LOQ≦ + <5%) | ++++ (50%≦ ++++) | ++ (5%≦ ++ <25%) | + (LOQ≦ + <5%) | + (LOQ≦ + <5%) | ++ (5%≦ ++ <25%) | + (LOQ≦ + <5%) | + (LOQ≦ + <5%)
